Changes are numbered by the printed parent chain. Where a SMILES comes first, the peptide text is derived from it. The star is where a group is joined. Cbz = O=C(OCc1ccccc1)*
Tests used:
R164H mutant of SERCA1 = target: T1, R164H mutant of SERCA1 (Bos taurus, UniProt Q0VCY0, R164H); assay: Western blot rescue of R164H mutant of SERCA1 in HEK293 cells; type: cell-based, bovine; settings: FIG. 3; HEK293, 24 hours; C 5 μM, B 10 μM, E 10 μM, F 10 μM, A 2 μM, D 10 μM; relative to wild type
T1 construct: expressed in transfected cells; host or cells: HEK 293
T1 sequence (Q0VCY0 whole entry R164H): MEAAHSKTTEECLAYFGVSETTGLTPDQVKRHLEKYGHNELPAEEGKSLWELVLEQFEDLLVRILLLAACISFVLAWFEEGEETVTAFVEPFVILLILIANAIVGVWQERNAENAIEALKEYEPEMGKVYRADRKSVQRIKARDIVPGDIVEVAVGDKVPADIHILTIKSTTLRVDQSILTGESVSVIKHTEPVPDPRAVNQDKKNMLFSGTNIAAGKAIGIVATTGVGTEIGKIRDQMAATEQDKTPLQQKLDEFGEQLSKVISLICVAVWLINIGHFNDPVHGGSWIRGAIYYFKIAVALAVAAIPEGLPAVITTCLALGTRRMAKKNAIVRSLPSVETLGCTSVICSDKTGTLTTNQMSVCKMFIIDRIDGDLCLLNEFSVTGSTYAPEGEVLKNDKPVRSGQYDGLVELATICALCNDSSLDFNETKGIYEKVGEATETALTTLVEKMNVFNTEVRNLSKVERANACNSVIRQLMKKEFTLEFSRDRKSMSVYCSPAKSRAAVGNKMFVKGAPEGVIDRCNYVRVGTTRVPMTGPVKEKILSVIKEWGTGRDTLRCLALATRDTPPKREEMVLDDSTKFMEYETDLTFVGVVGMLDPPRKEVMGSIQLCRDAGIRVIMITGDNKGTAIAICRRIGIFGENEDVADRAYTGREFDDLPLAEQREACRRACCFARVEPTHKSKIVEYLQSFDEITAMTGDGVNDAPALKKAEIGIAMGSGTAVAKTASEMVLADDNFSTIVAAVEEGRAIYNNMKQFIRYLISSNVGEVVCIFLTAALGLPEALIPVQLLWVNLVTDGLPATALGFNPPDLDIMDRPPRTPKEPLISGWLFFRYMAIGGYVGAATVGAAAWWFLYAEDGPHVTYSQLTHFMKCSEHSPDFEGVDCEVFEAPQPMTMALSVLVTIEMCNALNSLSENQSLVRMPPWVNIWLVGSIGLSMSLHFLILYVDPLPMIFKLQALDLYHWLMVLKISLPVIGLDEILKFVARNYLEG
Experimental: In FIG. 3 are reported the results obtained with HEK 293 cells expressing the R164H mutant of SERCA1 treated for 24 hours with either Compound C 5 μM, Compound B 10 μM, Compound E 10 μM, compound F 10 μM, Compound A 2 μM, compound D 10 μM, MG132 (proteasome inhibitor) 10 μM, used as positive control or the vehicle DMSO at 1‰ concentration, used as negative control. At the end of treatments, cells were lysed and total protein resolved by SDS-PAGE. Western blotting analysis has been performed by using SERCA1 specific antibody and β-actin specific antibody, to normalize loaded proteins. In the upper panel of FIG. 3 is reported a representative Western blotting experiment. The expression of SERCA1 in different samples has been determined by densitometric analysis and indicated as percentage of SERCA 1 content present in wild type expressing cells treated with DMSO.
In FIG. 10 is reported the content of SERCA1 protein present in HEK 293 cells transfected with the R164H mutant of SERCA1 and treated for 24 hours with either Compound H 15 μM, Compound I 10 μM, compound Q 10 μM, Compound R 5 μM, Compound S 15 μM, Compound T 15 μM or the vehicle DMSO at 1‰ concentration, used as negative control. Cells expressing the wild type form of SERCA1 have also been used for comparison. At the end of treatments, cells were lysed and total protein resolved by SDS-PAGE. Western blotting analysis has been performed by using SERCA1 specific antibody and β-actin specific antibody, to normalize loaded proteins. The expression of SERCA1 in different samples has been determined by densitometric analysis and indicated as percentage of SERCA 1 content present in wild type expressing cells. The graph of FIG. 10 reports the average values (+/− standard error) of at least three independent experiments.

[1] = target: T2, V247M mutant of alpha-sarcoglycan (Homo sapiens, UniProt Q16586, V247M); assay: Confocal immunofluorescence, membrane localization of V247M alpha-sarcoglycan in HEK293 cells; type: cell-based; settings: FIG. 2; HEK293, 24 hours; E 10 μM, D 10 μM, MG132 positive control; not permeabilized cells
T2 construct: expressed in transfected cells; host or cells: HEK 293
T2 sequence (Q16586 24-387 V247M): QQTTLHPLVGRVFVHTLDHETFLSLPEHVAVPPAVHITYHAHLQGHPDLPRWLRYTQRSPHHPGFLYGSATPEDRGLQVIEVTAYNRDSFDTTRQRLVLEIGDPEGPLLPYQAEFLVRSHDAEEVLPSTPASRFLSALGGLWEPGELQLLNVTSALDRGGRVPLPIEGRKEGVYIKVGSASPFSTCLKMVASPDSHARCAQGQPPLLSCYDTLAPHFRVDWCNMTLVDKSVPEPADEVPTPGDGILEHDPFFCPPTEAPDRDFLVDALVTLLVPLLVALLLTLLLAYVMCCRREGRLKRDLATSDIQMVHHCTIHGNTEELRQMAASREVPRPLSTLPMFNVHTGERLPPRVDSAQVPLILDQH
Experimental: The cellular localization of either the V247M or R98H mutants, upon corrector treatments, has been verified by confocal immunofluorescence.
In the experiment reported in FIG. 2, HEK 293 cells expressing the V247M mutant have been treated for 24 hours with either Compound E (10 μM) or Compound D (10 μM), MG132 (positive control) or DMSO at 1‰ concentration (negative control). At the end of treatments, not permeabilized cells were incubated with a monoclonal antibody specific for an extracellular epitope of α-sarcoglycan in order to mark only the membrane resident α-sarcoglycan. By comparison, cells expressing the wild type form of α-sarcoglycan have also been used.

[2] = target: T3, R98H mutant of alpha-sarcoglycan (Homo sapiens, UniProt Q16586, R98H); assay: Western blot rescue of R98H mutant of alpha-sarcoglycan in HEK293 cell model; type: cell-based; settings: FIG. 1; HEK293, 24 hours; C 5 μM, B 10 μM, E 10 μM, F 10 μM, A 2 μM, D 10 μM; relative to R98H cells treated with DMSO
T3 construct: expressed in transfected cells; host or cells: HEK293
T3 sequence (Q16586 24-387 R98H): T2 sequence (Q16586 24-387 V247M) with R75H, M224V
Experimental: HEK293 cells expressing different α-SG mutants have been treated with the Compounds A, B, C, D, E, F, H, I, Q, R, S and T according to protocols developed in CF studies [Loo and Clarke 2011; Becq et al 2011, Pedemonte et al 2005; Wang et al 2006]. Concentration and time-dependent recovery of treated mutants have been evaluated by Western blotting. The proteasome inhibitor MG132, at the concentration of 10 μM, or DMSO at 1‰ concentration, have been used as positive and negative control, respectively.
In FIG. 1 the result obtained by treating cells expressing the R98H mutant of α-SG for 24 hours with Compound C 5 μM, Compound B 10 μM, Compound E 10 μM, Compound F 10 μM, Compound A 2 μM, Compound D 10 μM are shown. At the end of treatments, cells were lysed and total proteins resolved by SDS-PAGE. Western blotting has been performed by using α-SG specific antibody and β-actin specific antibody, used to normalize loaded proteins (in FIG. 1, upper panel, a representative experiment is shown). The expression of α-SG in different samples has been determined by densitometric analysis of the western blotting experiments and indicated as percentage of the protein present in cells expressing the R98H mutant treated with DMSO (negative control).
In FIG. 4 the result obtained by treating cells expressing the R98H mutant of α-SG for 24 hours with either Compound H 15 μM, Compound I 10 μM, Compound T 15 μM, Compound A 2 μM, or DMSO at 1‰ concentration, used as negative control, are shown. Cells expressing the wild type form of α-sarcoglycan have been used for comparison. At the end of treatments, cells were lysed and total proteins resolved by SDS-PAGE. Western blotting has been performed by using α-SG specific antibody and β-actin specific antibody, used to normalize loaded proteins (in upper panel of FIG. 4, a representative experiment is shown). The expression of α-SG in different samples has been determined by densitometric analysis of the western blotting experiments and indicated as percentage of the protein present in cells expressing the wild type form of α-sarcoglycan. […] The compounds tested induced the recovery of the R98H mutant to levels that in some cases were even greater than those present in HEK cells expressing the wild type protein.
(§1) In FIG. 5 the result obtained by treating cells expressing the R98H mutant of α-SG for 24 hours with either increasing concentration of Compound R (1, 2.5, 5 μM) or DMSO at 1‰ concentration, used as negative control, are shown. Cells expressing the wild type form of α-sarcoglycan have been used for comparison. At the end of treatments, cells were lysed and total proteins resolved by SDS-PAGE. Western blotting has been performed by using α-SG specific antibody and β-actin specific antibody, used to normalize loaded proteins (in upper panel of FIG. 5, a representative experiment is shown). The expression of α-SG in different samples has been determined by densitometric analysis of western blotting experiments and indicated as percentage of the protein present in cells expressing the wild type form of α-sarcoglycan.
as §1, with “6” for “5”, “Q (5, 10 μM), increasing concentration of Compound S (10, 15” for “R (1, 2.5, 5”, “1% o” for “1‰”, “6,” for “5,”

D307H CASQ2 mutant = settings: CASQ2 D307H/D307H knock in mouse, systemic administration; cited from earlier work

SMILES | SERCA1 protein level (western blot, densitometry), rescue of R164H mutant (R164H mutant of SERCA1) | alpha-sarcoglycan protein level (western blot, densitometry), rescue of R98H mutant [2] | plasma membrane localization of V247M alpha-sarcoglycan mutant [1] | cardiac arrhythmia developed as consequence of CASQ2 mutant degradation (D307H CASQ2 mutant) | partial rescue of the mutant CASQ2, increase over not treated mice (D307H CASQ2 mutant)
COc1ccc(S(=O)(=O)N2CCN(C(C)c3nc(OC4CCCCC4)c4ccccc4n3)CC2)cc1 (stereo not shown) [Compound B, 4-Cyclohexyloxy-2-{1-[4-(4-methoxy-benzensulfonyl)-piperazin-1-yl]-ethyl}-quinazoline] | promote the rescue | promote the rescue |  |  | 
CC(C)C[C@@H](C=O)NC(=O)[C@H](CC(C)C)NC(=O)[C@H](CC(C)C)NC(=O)OCc1ccccc1 [MG132, reference compound] (Cbz-Leu-Leu-Leu-aldehyde) |  |  | promoted V247M membrane localization |  | 
CC(C)C[C@H](NC(=O)[C@H](Cc1ccccc1)NC(=O)c1cnccn1)B(O)O [Velcade, bortezomib] |  |  |  | can be counteracted | 20%

Now from value to molecule, other results behind:

SERCA1 protein level (western blot, densitometry), rescue of R164H mutant (R164H mutant of SERCA1) | alpha-sarcoglycan protein level (western blot, densitometry), rescue of R98H mutant [2] | SMILES | plasma membrane localization of V247M alpha-sarcoglycan mutant [1] | cardiac arrhythmia developed as consequence of CASQ2 mutant degradation (D307H CASQ2 mutant) | partial rescue of the mutant CASQ2, increase over not treated mice (D307H CASQ2 mutant)
promote the rescue | promote the rescue | O=C(Nc1ncc(C(c2ccccc2Cl)N2CC[C@@H](O)C2)s1)C1(c2ccc3c(c2)OCO3)CC1 (stereo in doubt) [Compound D, 1-(benzo[d][1,3]dioxol-5-yl)-N-(5-((S)-(2-chlorophenyl) ((R)-3-hydroxypyrrolidin-1-yl)methyl)thiazol-2-yl)cyclopropanecarboxamide] | promoted the correct plasma membrane localization |  | 
promote the rescue | promote the rescue | CC(c1nc(N2CCCCC2)c2ccccc2n1)N1CCN(S(=O)(=O)c2ccc(Cl)cc2)CC1 (stereo not shown) [Compound C, 2-{1-[4-(4-Chloro-benzensulfonyl)-piperazin-1-yl]ethyl}-4-piperidin-1-yl-quinazoline] |  |  | 

— patent US9987256B2, “CFTR corrector for the treatment of genetic disorders affecting striated muscle” (UNIVERSITA' DEGLI STUDI DI PADOVA, priority 2012, dated 2018)
